The text below walks through data of article PMC4452343, “Monitoring β-arrestin recruitment via β-lactamase enzyme fragment complementation: purification of peptide E as a low-affinity ligand for mammalian bombesin receptors” (PLoS ONE, 2015).

The target of one test is T1, hNMBR (Homo sapiens, UniProt P28336).
T1 construct: expressed in transfected cells; host or cells: CHO cells stably expressing hNMBR
Nature of the test: NFAT-luciferase reporter assay in CHO cells expressing hNMBR. The test is classed as cell-based. The note with it: 6 h incubation, read-out: EC50, activation of NFAT-promotor. As for the experimental part: CHO cells stably expressing the GPCR of interest were transiently transfected with NFAT-TA-Luc plasmid (Clontech). Cells were then left overnight before being plated in 96 well plates (20000 cells/well). After an additional 24 h, the synthetic ligands were added to the wells and incubated for 6 h. Following incubation, firefly luciferase assays were performed using the Steady-Glo Luciferase Assay System (Promega). Luminescence was detected with a plate reader (Victor V: Perkin Elmer), according to the manufacturer’s instructions. EC50 values were calculated using Workout 2.0 Data Analysis Software (Perkin Elmer).

A further test has as its system hOX1R. Nature of the test: ß-lactamase EFC assay of ß-arrestin recruitment, OX1R reporter cells. The test is classed as cell-based, human. The note with it: 14 h ligand incubation, CCF4/AM substrate. As for the experimental part: CHO cells stably expressing both the GPCR-omega chimera and ß-arrestin 2-alpha chimera were plated either in 6 well plates or in 96 well plates. After 24 h, ligands or HPLC fractions were added to the wells, and incubated for 14 h. After incubation, cells were washed once in HBSS and then incubated with CCF4/AM substrate for 2 h. ß-lactamase activity was measured either by FACS or with a plate reader (Victor V: Perkin Elmer).
A general note: Arrestin recruitment assays detect the binding of arrestin to an activated receptor.

T1 sequence (P28336 whole entry): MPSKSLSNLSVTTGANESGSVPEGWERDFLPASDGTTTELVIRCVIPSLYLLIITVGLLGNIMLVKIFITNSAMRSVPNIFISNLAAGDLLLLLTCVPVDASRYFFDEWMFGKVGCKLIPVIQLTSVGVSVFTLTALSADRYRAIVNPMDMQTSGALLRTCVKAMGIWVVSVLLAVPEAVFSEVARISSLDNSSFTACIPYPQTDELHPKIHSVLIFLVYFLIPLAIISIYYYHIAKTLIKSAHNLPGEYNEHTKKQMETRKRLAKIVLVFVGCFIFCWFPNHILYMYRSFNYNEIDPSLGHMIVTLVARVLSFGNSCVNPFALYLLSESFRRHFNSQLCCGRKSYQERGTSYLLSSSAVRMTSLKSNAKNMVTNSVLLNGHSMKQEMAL

Broadly, the EC50 is the concentration that produces a half-maximal response. For `CSCC[C@H](NC(=O)[C@H](Cc1ccccc1)NC(=O)[C@H](Cc1cnc[nH]1)NC(=O)CNC(=O)[C@@H](NC(=O)[C@H](C)NC(=O)[C@H](Cc1c[nH]c2ccccc12)NC(=O)[C@H](CC(C)C)NC(=O)[C@H](CC(N)=O)NC(=O)CN)[C@@H](C)O)C(N)=O` [NMB, neuromedin B], at hNMBR, the EC50 is 0.16 nM.

Take “orexin-A (QPLPDCCRQKTCSCRLYELLHGAGNHAAGILTL) [unrelated peptide; ligand of orexin type 1 receptor, used as control]”: the “Response in ß-lactamase EFC assay (ß-arrestin recruitment to OX1R)” value with hOX1R is “responded specifically to orexin-A”.
